According to PubChem BioAssay AID1918994 (Molecular Pharmacology Branch, DTP, NCI, 2023):

Test system: 292921-168-R-J2-PDC complex spheroid growth
Assay: Anticancer human tumor 292921-168-R-J2-PDC patient-derived pancreatic carcinoma cell line growth inhibition [AhR]
Conditions: for IC50: curve of first compound; for viability, T/C: stronger effect = lower value
Description: Multicellular complex tumor spheroid response to aryl hydrocarbon receptor antagonists in combination with a variety of drugs and investigational agents in selected tumor cell lines
The current study was undertaken to assess response to aryl hydrocarbon receptor antagonists in combination with standard-of-care drugs and investigational agents in solid tumor complex spheroid models. Complex spheroids include a stromal component modeled by human endothelial cells (HUVEC) and fibroblasts modeled by human mesenchymal stem cells (MSCs). The concentration ranges selected for each drug and investigational agent were based upon clinically achievable concentrations if the clinical Cmax of the agent was known.
Compounds. The drugs and investigational agents: BAY 2416964 (NSC825713), GNF351 (NSC835774), CH-223191 (NSC835775), CPI-455 (NSC825282), aza-TdCyd (NSC777586), decitabine (NSC127716), belinostat (NSC758774), entinostat (NSC756642), pevonedistat (NSC761192), tazemetostat (NSC777109), talazoparib (NSC765396), olaparib (NSC753686), selinexor (NSC780203), nedisertib (M3814, NSC802822), bortezomib (NSC756655), venetoclax (NSC766270), doxorubicin (NSC123127), elimusertib (BAY189344, NSC800525), ceralasertib (AZD6738, NSC777638), TAK-243 (NSC785004), alisertib (NSC759677), etoposide (NSC141540), topotecan (NSC609699), eribulin (NSC707389), gemcitabine (NSC613327), carboplatin (NSC241240), cisplatin (NSC119875), and SN-38 (NSC673596) were obtained from the National Cancer Institute (NCI) Developmental Therapeutics Program Chemical Repository (32). The FDA-approved anticancer drug set is available from the Developmental Therapeutics Program at https://dtp.cancer.gov/organization/dscb/obtaining/available plates.htm. […] The stock solutions were prepared in dimethyl sulfoxide (DMSO, Sigma-Aldrich, St. Louis, MO, cat. D2650), except for the platinum compounds which were prepared in saline (Quality Biological, Gaithersburg, MD, cat. 114-055-101), at 800-fold the tested concentration and stored at -70 degrees C prior to their use. All drugs and investigational agents were tested over a range starting from a high concentration at or near the clinical Cmax and decreasing in half-log increments. If the clinical Cmax for an agent had not been determined, the highest concentration tested was 10 microM (Table 1).
Cell Culture. All cells were maintained in an incubator at 37 degrees C and 5% CO2 with 95% humidity. The PDC lines were cultured according to standard operating procedures established by the NCI PDMR (https://pdmr.cancer.gov). Briefly, all PDCs were thawed and cultured in Matrigel-coated flasks prepared with a working solution of 1X Ham's F-12 nutrient mix, without supplementation (Invitrogen, Waltham, MA, cat. 11765054), 100 U/mL penicillin-streptomycin (Invitrogen, cat. 15140122), and 2.5% Matrigel (Corning Inc., Corning, NY, cat. 354248) for the first three passages. All PDCs were cultured in complete DMEM/F-12 media containing advanced DMEM/F-12 (Invitrogen, cat. 12634028), 4.9% defined fetal bovine serum, heat inactivated (HyClone Laboratories Inc., Logan, UT, cat. SH30070.03HI), 389 ng/mL hydrocortisone (Sigma-Aldrich, cat. H4001), 9.7 ng/mL human EGF recombinant protein (Invitrogen, cat. PHG0313), 23.4 microg/mL adenine (Sigma-Aldrich, cat. A2786), 97.3 U/mL penicillin-streptomycin (Invitrogen, cat. 15140122), 1.9 mM L-glutamine (Invitrogen, cat. 25030081), and 9.7 microM Y-27632 dihydrochloride (Tocris Bioscience, Bristol, United Kingdom, cat. 1254). The PDCs were cultured in complete DMEM/F12 media without 10 microM Y-27632 dihydrochloride for at least two passages prior to the screen. The established cell lines NCI-H1341 and […] were cultured in DMEM/F-12, HEPES (Invitrogen, cat. 11330032), 5% defined fetal bovine serum (HyClone Laboratories Inc., cat. SH30070.03), ITS premix universal culture supplement [insulin (5 microg/mL), transferrin (5 microg/mL), and selenious acid (5 ng/mL)] […]
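Also: spheroids exposed to compounds for seven days after three days of growth.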

SMILES: CC(C)CC(NC(=O)C(Cc1ccccc1)NC(=O)c1cnccn1)B(O)O (stereo not given) + CC(CO)NC(=O)c1cc(-c2ccc(Cl)cc2)nn(-c2cnn(C)c2)c1=O
- IC50 (second compound 0.1 µM): 6.1 nM
- IC50 (second compound 0.316 µM): 5.42 nM
- IC50 (second compound 1 µM): 6.01 nM
- IC50 (second compound 3.16 µM): 5.29 nM
- IC50 (second compound 10 µM): 4.43 nM
- viability, T/C (second compound 0.1 µM, first compound 0.000949 µM): 105%
- viability, T/C (second compound 0.1 µM, first compound 0.003 µM): 107%
- viability, T/C (second compound 0.1 µM, first compound 0.00949 µM): 15.2%
- viability, T/C (second compound 0.1 µM, first compound 0.03 µM): 2.8%
- viability, T/C (second compound 0.1 µM, first compound 0.0949 µM): 1.2%
- viability, T/C (second compound 0.1 µM, first compound 0.3 µM): 0.49%
- viability, T/C (second compound 0.316 µM, first compound 0.000949 µM): 109%
- viability, T/C (second compound 0.316 µM, first compound 0.003 µM): 90.4%
- viability, T/C (second compound 0.316 µM, first compound 0.00949 µM): 11.8%
- viability, T/C (second compound 0.316 µM, first compound 0.03 µM): 1.8%
- viability, T/C (second compound 0.316 µM, first compound 0.0949 µM): 0.5%
- viability, T/C (second compound 0.316 µM, first compound 0.3 µM): 0.59%
- viability, T/C (second compound 1 µM, first compound 0.000949 µM): 101%
- viability, T/C (second compound 1 µM, first compound 0.003 µM): 102%
- viability, T/C (second compound 1 µM, first compound 0.00949 µM): 15.8%
- viability, T/C (second compound 1 µM, first compound 0.03 µM): 2.98%
- viability, T/C (second compound 1 µM, first compound 0.0949 µM): 1.25%
- viability, T/C (second compound 1 µM, first compound 0.3 µM): 1.42%
- viability, T/C (second compound 3.16 µM, first compound 0.000949 µM): 85.8%
- viability, T/C (second compound 3.16 µM, first compound 0.003 µM): 85.6%
- viability, T/C (second compound 3.16 µM, first compound 0.00949 µM): 13.2%
- viability, T/C (second compound 3.16 µM, first compound 0.03 µM): 2.3%
- viability, T/C (second compound 3.16 µM, first compound 0.0949 µM): 2.01%
- viability, T/C (second compound 3.16 µM, first compound 0.3 µM): 1.89%
- viability, T/C (second compound 10 µM, first compound 0.000949 µM): 77.6%
- viability, T/C (second compound 10 µM, first compound 0.003 µM): 70%
- viability, T/C (second compound 10 µM, first compound 0.00949 µM): 11%
- viability, T/C (second compound 10 µM, first compound 0.03 µM): 1.4%
- viability, T/C (second compound 10 µM, first compound 0.0949 µM): 2.28%
- viability, T/C (second compound 10 µM, first compound 0.3 µM): 2.01%
